Several values for one entry are separate records, joined by “and”; a condition that tells them apart may be missing. Equal entries are not always repeated.
Columns and labels:
Settings in all cases: in vivo
Meloidogyne javanica = system: Meloidogyne javanica
[1] = system: nematode inoculum (eggs and larvae) in soil; parameters: species or system Meloidogyne javanica
[2] = system: root-knot nematodes Meloidogyne javanica

| Structure (SMILES) | reduction of galling infection (Meloidogyne javanica) | further results |
| --- | --- | --- |
| N[C@@H](CC(=O)O)C(=O)O [Aspartic acid] | most effective | – |
| NCCCC[C@H](N)C(=O)O [Lysine] | most effective | – |
| CBr [Methyl Bromide] | – | control of nematode infection in the roots [1]: highly effective in controlling nematode infection in the roots |
| N[C@@H](CS)C(=O)O [Cysteine] | most effective | – |
| OP(O)O [phosphorous acid] | – | galling incidence [2]: 20% and 10% |
| O=[PH](O)O [phosphite, H3PO3] | – | galling incidence and galling index (nematode control) (Meloidogyne javanica): higher efficacy in controlling nematodes as compared with urea |

Reference: patent publication US20100291230A1 (priority 2006, published 2010)
